Reference: US6632823B1, “Substituted pyridine compounds useful as modulators of acetylcholine receptors” (Merck & Co., Inc., priority 1997, dated 2003)
Where a name gives a salt, the structure may show the parent alone.

`CN1C2CCC1CC(SCc1ccccn1)C2` (stereo not drawn) (as salt: hydrochloride) and `CN1C2CCC1CC(Sc1ccccn1)C2` (stereo not drawn) (as salt: hydrochloride) [3-[Endo-(2-Pyridine)thio]-8-methyl-8-azabbicyclo[3.2.1]octane] cannot be ordered by melting point: 204 to 206 °C for the first, 201 to 205 °C for the second.

In the case of `CN1CCCC1CCSc1ccncc1` (stereo not drawn) (as salt: hydrochloride) [A = C, B = N, R1, R2, R4, R5 = H, D = absent, E = —S—, G = —] [2-[2-(4-Pyridine)thioethyl]-1-methylpyrrolidine], the melting point is reported as 186.5 to 187.5 °C.
